What was measured:
[1] = tested on: PAX6; assay: qRT-PCR analysis of dorsal midbrain marker PAX6 in imDAP cells; type: cell-based, human; details: exposure to Boost-CHIR 7.5 μM from Day 4 compared to from Day 5
Method: (1) qRT-PCR • 1. For qRT-PCR analysis of mRNA gene expression, RNA should be harvested from at least 2×10^6 cells. • 2. Harvest cells, add 350 μl of buffer RLT+1% (vol/vol) β-mercaptoethanol to the well, transfer the lysate to a 1.5 ml tube, and put it immediately on ice. • 3. Perform RNA extraction using the Tiangen Kit (DP430) and following the manufacturer's protocol ‘Purification of total RNA from animal and human cells’. • 4. When the RNA extraction was completed, determine the RNA concentration using a Nanodrop instrument. • 5. Perform the first-strand cDNA synthesis reaction with 1 μg of RNA using the HiScript™ II Q RT SuperMIX for qPCR (+gDNA wiper) Kit (Vazyme, #R223-01) for RT-qPCR. Follow the manufacturer's ‘First-Strand cDNA Synthesis’ protocol. This reaction would yield a 20 μl product. • 6. Dilute 10 μl cDNA product in 80 μl of nuclease-free water. • 7. […] In the analysis, the expression level of gene was determined by using a sample of undifferentiated hPSCs as control. • 8. Analyze the samples by running a quantitative PCR on the LightCycler 480 instrument using a 40x cycle two-step protocol with a 60° C., 60 sec annealing/elongation step and a 95° C., 30 sec denaturation step. […]

[2] = tested on: OTX2+ imDAP cells; assay: FACS analysis of OTX2 expression of imDAP cells derived from hiPSCs; type: cell-based, human; details: 4-step protocol, Day 16
Method: • 1. Individualize and collect cells by either Accutase or TrypLE treatment. • 2. Wash cells with 1 ml PBS and pellet cells at 250×g for […]. • 3. Remove supernatant, add ˜200 μl of 4% PFA, mix and fix for 10 min at RT. • 4. Pellet cells at 350×g for 5 min. • 5. Wash cells by 1 ml of FACS buffer and pellet cells at 350×g for 5 min. • 6. Remove supernatant, add 200 μl/tube of FACS buffer/0.1% Triton X, mix for 10 min at RT. • 7. Wash cells by 1 ml of FACS buffer and pellet cells at 350×g for 5 min. • 8. Remove supernatant, add 200 μl/tube of primary antibody diluted in FACS buffer, mix gently, and incubate for 30 min at RT. • 9. Wash cells by 1 ml of FACS buffer and pellet cells at 350×g for 5 min. • 10. Remove supernatant, and add 200 μl of secondary antibody diluted in FACS buffer, mix gently, and incubate for 30 min at RT. • 11. Wash cells by 1 ml of FACS buffer and pellet cells at 300×g for 5 min. • 12. Remove supernatant, add 200 μl of FACS buffer, and run samples on the flow cytometer.
On Day-1, EB formation (Stage 1) was carried out by dissociating hiPSCs (Nuwacell) to form a single-cell suspension and resuspending it in Epic medium (Nuwacell, #RP01001) containing 10 μM Blebbistatin (MCE, #HY-13441) in T25 flasks on a belly dancer and culturing the cells overnight. On Day 0, ventral midbrain floor plate differentiation (Stage 2) was initiated by changing the medium to a Stage 2-1 differentiation medium containing DMEM: F12/B27 (plus Vitamin A) (98:2, v/v) as basal medium and supplemented with 0.5 μM LDN193189, 10 μM SB431542, 500 ng/mL SHH C24II, 2 μM Purmorphamine, 10 nM SAG and 1.2 μM CHIR99021 and culturing the cells for 3 Days. […] The cells of each group were stained with OTX2-FITC antibody (Miltenyi, #130-121-195), the percentage of OTX2+ imDAP cells were analyzed by flow cytometry (FIG. 8A). The cells obtained by Boost-CHIR treatment from D4 to D6, D7 or D8, or from D5 to D7 or D8 were analyzed by qRT-PCR for dorsal midbrain marker PAX6 (FIG. 8B).

Structure (SMILES): Cc1cnc(-c2cnc(NCCNc3ccc(C#N)cn3)nc2-c2ccc(Cl)cc2Cl)[nH]1 [CHIR, CHIR99021]
- expression of PAX6 [1]: lower
- percentage of cells positive for OTX2 ([2]; Boost-CHIR 7.5 μM from Day 4 to Day 6 (Stage 2-2)): 75.29%
- percentage of cells positive for OTX2 ([2]; Boost-CHIR 7.5 μM from Day 4 to Day 7 (Stage 2-2)): 71.92%
- percentage of cells positive for OTX2 ([2]; Boost-CHIR 7.5 μM from Day 4 to Day 8 (Stage 2-2)): 79.83%

— patent publication US20250136934A1, “PRODUCTION OF INDUCED MIDBRAIN DOPAMINERGIC PROGENITOR CELLS FROM PLURIPOTENT STEM CELLS” (NUWACELL BIOTECHNOLOGIES CO., LTD., priority 2023, published 2025)
